Experimental data as given in ChEMBL document CHEMBL1138268, “Synthesis and evaluation of cis-1-[4-(hydroxymethyl)-2-cyclopenten-1-yl]-5-[(124)I]iodouracil: a new potential PET imaging agent for HSV1-tk expression” (J Med Chem, 2007).

What was measured:
[1] = Metabolic stability in mouse liver microsomes after 30 min; type: ADME, Microsome
[2] = Metabolic stability in mouse serum after 6 hrs; type: ADME, cell-free
[3] = Cytotoxicity against MCA cells; type: cell-based
[4] = Cytotoxicity against MCA-TK cells; type: cell-based

Row | half-life [1] [h] | half-life [2] [h] | Compound | IC50 [3] [µM] | IC50 [4] [µM]
1 | 1.24 | 22.6 | O=c1[nH]c(=O)n([C@H]2C[C@H](O)[C@@H](CO)O2)cc1I [IDOXURIDINE] | – | –
2 | – | – | Nc1nc2c(ncn2COC(CO)CO)c(=O)[nH]1 [GANCICLOVIR] | 270 | 0.15
